Reference: the RepoRT retention time repository (doi:10.1038/s41596-020-0341-5)

Assay: RP, Waters ACQUITY UPLC BEH C8, 100 × 2.1 mm, 1.7 µm, 50 °C, 0.35 mL/min, estimated dead time 0.63 min; A: water + 0.1% formic acid; B: acetonitrile + 0.1% formic acid; gradient (min/%B) 0/5 1/5 24/100 28/100
Conditions: stereoisomer not certain

SMILES | LC retention time
C[N+](C)(C)CC(O)CC(=O)[O-] (stereo not drawn) | 0.767 min
NC(Cc1c[nH]c2ccccc12)C(=O)O (stereo not drawn) | 2.47 min
O=C(O)C1CCCCN1 (stereo not drawn) | 0.817 min
CCCC=CCCC(=O)OC(CC(=O)O)C[N+](C)(C)C (stereo not drawn) | 6.8 min
CCC=CCC=CCC=CCCCCCCCC(=O)O | 17.1 min
NC(Cc1ccc(O)cc1)C(=O)O (stereo not drawn) | 1.03 min
Cn1cccc1-c1cccnc1 | 2.47 min
CSCCC(N)C(=O)O (stereo not drawn) | 1.02 min
CC(CCC(=O)O)C1CCC2C3CCC4CC(O)CCC4(C)C3CC(O)C12C (stereo not drawn) | 13.3 min
NCCc1c[nH]c2ccc(O)cc12 | 1.02 min
Nc1nc2ccc(C(=O)c3ccccc3)cc2[nH]1 | 5.28 min
NC(Cc1ccccc1)C(=O)NC(Cc1ccccc1)C(=O)O (stereo not drawn) | 5.35 min
CC12CCC(=O)C=C1CCC1C2C(O)CC2(C)C1CCC2(O)C(=O)CO (stereo not drawn) | 7.77 min
CCCCCCCCOC(=O)c1ccccc1C(=O)OCCCCCCCC | 21.4 min
CC(C)CCCCCOC(=O)c1ccccc1C(=O)OCCCCCC(C)C | 20.8 min
CC(C)NCC(O)COc1ccc(CC(N)=O)cc1 (stereo not drawn) | 2.03 min
CCC=CCC=CCC=CCC=CCC=CCCCC(=O)O | 18.1 min
Cn1c(=O)[nH]c2ncn(C)c2c1=O | 2.28 min
CCCCCC=CCC=CCCCCCCCC(=O)OCC(O)CO (stereo not drawn) | 17 min
CCCCCCCCC=CCCCCCCCC(=O)NCCO | 16.9 min
Cc1cnc2ccccc2c1 | 2.47 min
CCCCCCC=CCCCCCCCC(=O)O | 17.4 min

SMILES | LC retention time
O=C(O)C(O)c1ccc(O)c(O)c1 (stereo not drawn) | 13.9 min
CCCCCC=CCC=CCC=CCC=CCCCC(=O)O | 17.9 min
CC(C)C1=CC2=CCC3C(C)(C(=O)O)CCCC3(C)C2CC1 (stereo not drawn) | 17.1 min
CCCCCC=CCC=CCC=CCCCCCCC(=O)O | 18.4 min
CCCCCCCCC=CCCCCCCCC(N)=O | 17.4 min
O=C(O)C(O)Cc1c[nH]c2ccccc12 (stereo not drawn) | 5.17 min
O=CCC(O)C(O)C(O)CO (stereo not drawn) | 0.783 min
CC(C)CC(NC(=O)CCC([NH3+])C(=O)[O-])C(=O)[O-] (stereo not drawn) | 3.05 min
Cn1cnc2c(ncn2C2OC(CO)C(O)C2O)c1=N (stereo not drawn) | 1 min
CC(C)(CO)C(O)C(=O)NCCC(=O)O (stereo not drawn) | 1.92 min
CCCCOC(=O)c1ccccc1C(=O)OCCCC | 15.7 min
O=C(O)c1ccccc1O | 4.47 min
NN1CCOC1=O | 1.6 min
Cc1cc2nc3c(=O)[nH]c(=O)nc-3n(CC(O)C(O)C(O)CO)c2cc1C (stereo not drawn) | 3.85 min
Oc1ccc2[nH]ccc2c1 | 3.23 min
O=C(O)C1CCCN1 (stereo not drawn) | 0.9 min
CCCCCC=CCC=CCC=CCCCCCCC(=O)OCC(O)COP(=O)([O-])OCC[N+](C)(C)C (stereo not drawn) | 15.9 min
C=CC1=C(C)C(C=c2[nH]c(=Cc3[nH]c(C=C4NC(=O)C(C)=C4C=C)c(C)c3CCC(=O)O)c(CCC(=O)O)c2C)=NC1=O | 10.7 min
NC(Cc1ccccc1)C(=O)O (stereo not drawn) | 1.63 min
Nc1ccccc1C(=O)CC(N)C(=O)O (stereo not drawn) | 1.53 min
CCC=CCC=CCC=CCC=CCC=CCCCC(=O)OCC(COP(=O)([O-])OCC[N+](C)(C)C)OC(=O)CCCC=CCC=CCC=CCCCCCCCC (stereo not drawn) | 22 min
CCC=CCC=CCCC(=O)OC(CC(=O)O)C[N+](C)(C)C (stereo not drawn) | 8.58 min

SMILES | LC retention time
NC(=O)CCC(NC(=O)Cc1ccccc1)C(=O)O (stereo not drawn) | 3.67 min
CCn1cc(C(=O)O)c(=O)c2ccc(C)nc21 | 7.7 min
O=Cc1ccc(O)cc1 | 1.03 min
CC(=O)Nc1ccc(OC2OC(C(=O)O)C(O)C(O)C2O)cc1 (stereo not drawn) | 1.22 min
CCCCCCC(N)C(=O)O (stereo not drawn) | 0.8 min
CCC=CCC=CCC=CCC=CCC=CCC=CCCC(=O)O | 17.8 min
CC(CCC(=O)NCC(=O)O)C1CCC2C3C(O)C(O)C4CC(O)CCC4(C)C3CCC12C (stereo not drawn) | 9.97 min
O=C(O)CCc1c[nH]c2ccccc12 | 7.33 min
CC(C)CCCC(C)C1CCC2C3CCC4=CC(=O)CCC4(C)C3CCC12C (stereo not drawn) | 21.8 min
CC(=O)CCC=C(C)CCC=C(C)CCC=C(C)C | 17.9 min
CC(CCC(=O)NCC(=O)O)C1CCC2C3CCC4CC(O)CCC4(C)C3CC(O)C12C (stereo not drawn) | 11.8 min
CC(C)CCCC(C)C1CCC2C3C(=O)C=C4CC(O)CCC4(C)C3CCC12C (stereo not drawn) | 19.4 min
CC(C)CC(NC(=O)C1CCCN1)C(=O)O (stereo not drawn) | 1.12 min
O=c1[nH]cnc2nc[nH]c12 | 1.02 min
O=C(O)C=Cc1ccccc1 | 1.6 min
O=C(CO)CO | 1.6 min
C1CCNC1 | 1.03 min
CC(=O)Nc1ccc(O)cc1 | 1.98 min
NC(Cc1ccccc1)C(=O)N1CCCC1C(=O)O (stereo not drawn) | 4.18 min
CCCCCCCCCCCCCC=CC(O)C(N)COP(=O)(O)O (stereo not drawn) | 13 min

The next lines start with the values.

LC retention time | SMILES
12.6 min | CCCCCCCCCCCCCCCC(O)C(N)CO (stereo not drawn)
18.8 min | CCCCCCCCC=CCCCCCCCCCCCC(N)=O
11.4 min | CCCCCCC=CCCCC(=O)OC(CC(=O)O)C[N+](C)(C)C (stereo not drawn)
14.4 min | CCCCCC=CC=CCCCCCCCCC(=O)OC(CC(=O)O)C[N+](C)(C)C (stereo not drawn)
18.4 min | CCCCCCCCCCCCCCCCCC(N)=O
15.3 min | CCCCCCCCCCCCCCCCCCOCC(O)COP(=O)([O-])OCC[N+](C)(C)C (stereo not drawn)
3.7 min | CCCCC(=O)OC(CC(=O)O)C[N+](C)(C)C (stereo not drawn)
19 min | CCCCCCCCCCCCCCCCCCCCCCCC(=O)OC(CC(=O)O)C[N+](C)(C)C (stereo not drawn)
13.8 min | CCCCCCCCCCCCCCC(=O)OC(CC(=O)O)C[N+](C)(C)C (stereo not drawn)
16.8 min | CCCCCCCCCCCCCCCCCCC(=O)OCC(O)COP(=O)([O-])OCC[N+](C)(C)C (stereo not drawn)
7.65 min | CCCCC=CCCC(=O)OC(CC(=O)O)C[N+](C)(C)C (stereo not drawn)
14.3 min | CCCCCCCCCCCCCCCC(=O)OCC(O)COP(=O)([O-])OCC[N+](C)(C)C (stereo not drawn)
18.4 min | CCCCCCCCCCCCCCCC(=O)O
8.62 min | CCCCCCCCC(=O)OC(CC(=O)O)C[N+](C)(C)C (stereo not drawn)
20.1 min | CCCCCCCCC=CCCCCCCCCCC(=O)O
11.9 min | CCCCC=CC=CCCCCCC(=O)OC(CC(=O)O)C[N+](C)(C)C (stereo not drawn)
19.8 min | CCCCCCCCCCCCCCCCCCCCCCCCCC(=O)OC(CC(=O)O)C[N+](C)(C)C (stereo not drawn)

LC retention time | SMILES
16.3 min | CCCCCCCCC=CCCCCCCCCCC(=O)OC(CC(=O)O)C[N+](C)(C)C (stereo not drawn)
16.9 min | CCCCCCCCCCCCCCCC(N)=O
2.28 min | CCCC(=O)OC(CC(=O)O)C[N+](C)(C)C (stereo not drawn)
18.1 min | CCCCCCCCCCCCCCCCCCCCCC(=O)OC(CC(=O)O)C[N+](C)(C)C (stereo not drawn)
17.1 min | CCCCCCCCCCCCCCCCCCCC(=O)OC(CC(=O)O)C[N+](C)(C)C (stereo not drawn)
13.3 min | CCCCCCCCCCCCCC(=O)OC(CC(=O)O)C[N+](C)(C)C (stereo not drawn)
13.2 min | CCCCCCCCC=CCC=CCCC(=O)OC(CC(=O)O)C[N+](C)(C)C (stereo not drawn)
15.2 min | CCCCCCC=CCCCCCCCCCC(=O)OC(CC(=O)O)C[N+](C)(C)C (stereo not drawn)
20.2 min | CCCCCC=CCC=CCC=CCCCCCCC(=O)OCC(COP(=O)([O-])OCC[N+](C)(C)C)OC(=O)CCCCCCCCCCCCC (stereo not drawn)
14.4 min | CCCCCCC=CCCCCCCCCCCOCC(O)COP(=O)([O-])OCC[N+](C)(C)C (stereo not drawn)
9.35 min | CCCCCC=CCCC(=O)OC(CC(=O)O)C[N+](C)(C)C (stereo not drawn)
18.9 min | CCCCCCC=CCCCCCCCCCC(=O)O
19.1 min | CCCCCCCCCCCCCCC=CCCCCCCCCCC(=O)OC(CC(=O)O)C[N+](C)(C)C (stereo not drawn)
16.3 min | CCCCCCCCCCCCCCCC(=O)NCCO
11.8 min | CCCCC=CCCCCCCC(=O)OC(CC(=O)O)C[N+](C)(C)C (stereo not drawn)
12.7 min | CCCCC=CCCCCCCCC(=O)OC(CC(=O)O)C[N+](C)(C)C (stereo not drawn)
13.9 min | CCCCCCCCC=CCCCCCC(=O)OC(CC(=O)O)C[N+](C)(C)C (stereo not drawn)
